The subject of one assay is plasma cholesterol. Briefly: Hypocholesterolemic activity in rats on a hypercholesterolemic diet. Format: in vivo, rat. Conditions: male rats, 4 days, Altromin C 1061 hypercholesterolemic diet, dose which reduces plasma cholesterol by half relative to controls. As for the experimental part:
2) Hypocholesterolemic activity
Male rates (160-180 g) are subjected for 4 days to an Altromin C 1061 hypercholesterolemic diet, and concomitantly treated orally with compounds suspended in a 2% solution of Tween 80 in distilled water.
On day 5, the animals, which have not fasted, are anesthethized with ethyl ether and exsanguinated by drawing blood at the abdominal aorta onto EDTA. The blood is immediately centrifuged and the plasma stored at 4° C.
Plasma cholesterol is then assayed by the CHOD-PAP method (Boehringer-Mannheim Ref. 237574). The median effective dose (ED50) corresponds to the dose which reduces the plasma cholesterol concentration by half relative to control animals.

For assay [1], the system named is hepatic microsomal lipids (rat liver microsomes). Briefly: Antioxidant activity: chemical peroxidation of hepatic microsomal lipids (TBARS). Format: biochemical. The conditions noted are these: Fe3+/ADP/dihydroxyfumaric acid. The source says: a) Chemical peroxidation.
In the presence of Fe^3+ and ADP, dihydroxyfumaric acid undergoes an autoxidation which generates oxygen free radicals. The latter bring about the peroxidation of hepatic microsomal lipids.

For assay [2], the target named is ACAT (acyl-CoA:cholesterol O-acyl-transferase enzyme). Briefly: Inhibition of ACAT in vitro. Format: biochemical, rat. The conditions noted are these: technique of H. Chautan et al. The source says:
The compounds were studied for their inhibitory effect on ACAT and hypocholesterolemic effect in rats, on the one hand, and for their antioxidant effect, on the other hand.

A further assay relates to Human LDL. Briefly: Antioxidant activity: oxidation of LDL by CuSO4 (TBARS). It is filed as biochemical. The conditions noted are these: human LDL oxidized with 10 μM CuSO4, 6 hours, TBARS at 532 nm.
The mark [3] stands for this setting: Rattus norvegicus, po, 96 h, read-out: ED50.

Experimental findings from patent publication US5990173A, “2,3,5-trimethyl-4-hydroxyanilide derivatives, preparation thereof and therapeutical use thereof” (Pierre Fabre Medicament, priority 1995, dated 1999) are described below.

Like-named read-outs stand apart in the source and are kept apart here.

For `CCCCCCCCCCCCSC(C(=O)Nc1cc(C)c(O)c(C)c1C)c1ccc(OC)cc1` (stereo not drawn) [Compound 14, 2',3',5'-Trimethyl-4-hydroxy-α-dodecylthio-α-(p-methoxyphenyl)acetanilide], the ED50 in the assay with plasma cholesterol (setting [3]) is 1 mg/kg.

Regarding `CCCCCCCCCCCCSC(CC)C(=O)Nc1cc(C)c(O)c(C)c1C` (stereo not drawn) [Compound 3, 2',3',5'-Trimethyl-4'-hydroxy-α-(dodecylthio)butyranilide], the 50% inhibitory concentration (IC50) in assay [1] is more than 10000 nM; in assay [2] it was 310 nM. The ED50 in the assay with plasma cholesterol (setting [3]) was found to be 4 mg/kg.

With `CCCCCCCCCCCCSC(C)(C)C(=O)Nc1cc(C)c(O)c(C)c1C` [Compound 8, 2',3',5'-Trimethyl-4'-hydroxy-α-(dodecylthio)isobutyranilide], the IC50 in assay [1] turned out to be 3000 nM; in assay [2], 190 nM. The ED50 in the assay on plasma cholesterol (setting [3]) amounted to 10 mg/kg.

Consider `CCCCCCCN(CCCCCSc1nc(-c2ccccc2)c(-c2ccccc2)[nH]1)C(=O)Nc1ccc(F)cc1F` [DUP 128, reference compound], for which the IC50 in the assay on Human LDL was 30000 nM; in assay [1], more than 10000 nM. Besides, in the assay on plasma cholesterol (setting [3]), the ED50 is 1.1 mg/kg.

As for `CCCCCCCCCCCCSC(C(=O)Nc1cc(C)c(O)c(C)c1C)C(C)C` (stereo not drawn) [Compound 5, 2',3',5'-Trimethyl-4'-hydroxy-α-(dodecylthio)isovaleranilide], the IC50 in assay [1] stood at 5000 nM; in assay [2], 630 nM. Also, the ED50 in the assay with plasma cholesterol (setting [3]) turned out to be 1 mg/kg.

With `CCCCCCCCCCCCSC(CCC)C(=O)Nc1cc(C)c(O)c(C)c1C` (stereo not drawn) [Compound 6, 2',3',5'-Trimethyl-4'-hydroxy-α-(dodecylthio)valeranilide], the IC50 in assay [1] worked out at 300 nM; in assay [2], 110 nM. In addition, the ED50 with plasma cholesterol (setting [3]) was determined as 1 mg/kg.

As for `CCCCCCCCCCCCSC(C(=O)Nc1cc(C)c(O)c(C)c1C)c1ccccc1` (stereo not drawn) [Compound 7, 2',3',5'-Trimethyl-4'-hydroxy-α-dodecylthio-α-phenylacetanilide], the IC50 in the assay on Human LDL came out at 13000 nM; in assay [1], 600 nM. In the assay on plasma cholesterol (setting [3]), the ED50 is 0.2 mg/kg.

For the compound Vitamin E [reference compound], the IC50 with Human LDL worked out at 10000 nM; in assay [1], 2300 nM.

For the compound `CCCCCCCCCCCCSCC(=O)Nc1cc(C)c(O)c(C)c1C` [Compound 2, 2',3',5'-Trimethyl-4'-hydroxy-α-(dodecylthio)acetanilide], the values for the IC50 in assay [1] and in assay [2] were 5000 nM and 300 nM, respectively. Also, in the assay with plasma cholesterol (setting [3]), the ED50 is more than 10 mg/kg.

In assay [2], `Cc1cc(NC(=O)C(C)(C)Sc2ccc(Cl)cc2)c(C)c(C)c1O` [Compound 9, 2',3',5'-Trimethyl-4'-hydroxy-α-(p-chlorophenylthio)isobutyranilide] had an IC50 of 1120 nM.

Take `CCCCCCCCCCCCSC(CCCC)C(=O)Nc1cc(C)c(O)c(C)c1C` (stereo not drawn) [Compound 4, 2',3',5'-Trimethyl-4'-hydroxy-α-(dodecylthio)hexananilide]: the IC50 came to 10000 nM with Human LDL, 500 nM in assay [1] and 160 nM in assay [2]. For the same compound, the ED50 with plasma cholesterol (setting [3]) was determined as 0.5 mg/kg.

`CCCCCCCCCCCCSC(C(=O)Nc1cc(C)c(O)c(C)c1C)c1ccccc1` (single isomer, unassigned; (+)) [Compound 16, (+)-2',3',5'-Trimethyl-4'-hydroxy-α-dodecylthio-α-phenylacetanilide]: in the assay with Human LDL, the IC50 is 4000 nM. In the assay with plasma cholesterol (oral), this compound showed an ED50 of 0.15 mg/kg.

In turn, `CCCCCCCCCCCC[S+]([O-])C(C)(C)C(=O)Nc1cc(C)c(O)c(C)c1C` (stereo not drawn) [Compound 12, 2',3',5'-Trimethyl-4'-hydroxy-α-(dodecylsulfinyl)bobutyranilide] had an IC50 in the assay on Human LDL of 3000 nM.

In the case of `CCCCCCCCCCC(C)(C)C(=O)Nc1c(OC)cc(OC)cc1OC` [CI 976, reference compound], the results for the IC50 (in the assay with Human LDL; in assay [1]) were 100000 nM and more than 10000 nM, respectively. The ED50 in the assay on plasma cholesterol (setting [3]) worked out at 8.3 mg/kg.

The compound `Cc1cc(NC(=O)C(C)(C)Oc2ccc(Cl)cc2)c(C)c(C)c1O` [Compound 11, 2',3',5'-Trimethyl-4'-hydroxy-α-(p-chlorophenoxy)isobutyranilide] gave an IC50 in assay [2] of 1100 nM.

One may read the IC50 as the concentration that gives 50% inhibition. A higher IC50 goes with lower potency.
